Common to all, as to experiment: NCI tumour cell line growth inhibition, 48 h
The subject of assay [1] is Hs-578T.
Assay [2] deals with UO-31.
In assay [3] the test system is HOP-62.
For assay [4], the system named is A498.
Assay [5] deals with RXF 393.
The subject of assay [6] is RPMI-8226.
In assay [7] the test system is A549.
For assay [8], the system named is DU-145.
For assay [9], the system named is T47D.
For assay [10], the system named is SF-539.
Assay [11] has as its system MDA-MB-435.
In assay [12] the test system is HCC 2998.
Assay [13] concerns NCI/ADR-RES.
Assay [14] relates to UACC-62.
For assay [15], the system named is U-251.
The test system of assay [16] is BT-549.
Assay [17] deals with 786-0.
For assay [18], the system named is OVCAR-5.
Assay [19] concerns CAKI-1.
Assay [20] concerns IGROV-1.

Each structure is given as a SMILES string.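 Compound exposure: 48 hours, 5 concentrations, 96-well plates. GI50 = concentration required for 50% inhibition of growth.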 Calls of active or inactive are those of the source. Rule as the data show it: active = GI50 up to about 1.1 µM and inactive = higher.

`CC1(C)[C@@H]2C[C@H]1C(Cc1ccc(C[C@H]3c4cc(-c5ccccn5)ncc4[C@H]4C[C@@H]3C4(C)C)cc1)c1cc(-c3ccccn3)ncc12` (stereo not given in full): the GI50 in assay [1] is > 100 µM (inactive); in [2], 0.931 µM (active); in assay [3], 0.538 µM (active); in assay [4], 2.36 µM (inactive); in [5], 3.58 µM (inactive); in assay [6] it was 3.03 µM (inactive). In addition, the GI50 was 0.807 µM (active) in assay [7]; 2.31 µM (inactive) in assay [8]; 2.52 µM (inactive) in [9]; 1.22 µM (inactive) in assay [10]; 1.13 µM (inactive) in assay [11]; 1.74 µM (inactive) in [12]. Moreover, the GI50 in assay [13] is 2.71 µM (inactive); in assay [14], 0.67 µM (active); in [15], 1.01 µM (active); in assay [16], 3.33 µM (inactive); in assay [17] it was 1.41 µM (inactive); in assay [18], 1.46 µM (inactive). For the same compound, the GI50 in assay [19] was 2.45 µM (inactive); in assay [20], 1.25 µM (inactive).
For `Fc1cc2nc3n(c2cc1F)C(c1c(F)cccc1F)SC3` (stereo not given), the GI50 in assay [1] was 50.1 µM (inactive); in assay [2] it was 37.8 µM (inactive); in assay [3], 67.9 µM (inactive); in [4], 29.8 µM (inactive); in assay [5], 26.9 µM (inactive); in assay [6] it was 34.5 µM (inactive). Also, the GI50 in [7] was 37.1 µM (inactive); in [8], 87.5 µM (inactive); in assay [9] it was 37 µM (inactive); in assay [10], 39.4 µM (inactive); in [11], 35.3 µM (inactive); in [12], 68.4 µM (inactive). In addition, the GI50 in assay [13] is 35.4 µM (inactive); in [14], 38.8 µM (inactive); in assay [15] it was 57.3 µM (inactive); in [16], 53.2 µM (inactive); in assay [17] it was 24.3 µM (inactive); in assay [18], 53.3 µM (inactive). For the same compound, the GI50 is 34.3 µM (inactive) in [19] and 47.9 µM (inactive) in [20].
On to `CN(C)c1ccc2nc(CC(O)(C(F)(F)F)C(F)(F)F)ccc2c1`, for which the GI50 in assay [1], in assay [2], in assay [3], in [4], in assay [5] and in assay [6] was > 10 µM (inactive) in each case. Moreover, the GI50 in assay [7], in assay [8], in assay [9], in assay [10], in assay [11] and in assay [12] was > 10 µM (inactive) each time. In addition, the GI50 in [13], in assay [14], in [15], in [16], in [17] and in [18] was > 10 µM (inactive) each time. For the same compound, the GI50 in assay [19] and in assay [20] was > 10 µM (inactive) each time.
For `CC(=O)C(C(c1ccccc1)N1CCOCC1)N1CCOCC1` (stereo not given), the GI50 in [1], in assay [2], in assay [3], in [4], in assay [5] and in assay [6] was > 100 µM (inactive) each time. The GI50 in [7] was > 100 µM (inactive); in assay [8], > 100 µM (inactive); in assay [9], > 100 µM (inactive); in assay [10] it was > 100 µM (inactive); in assay [11] it was > 100 µM (inactive); in [12], 20.3 µM (inactive). In addition, the GI50 in [13], in assay [14], in assay [15], in assay [16], in [17] and in assay [18] was > 100 µM (inactive) throughout. The GI50 in assay [19] and in assay [20] was > 100 µM (inactive) each time.
As to `O=C(CN1C(=O)CC(c2ccccc2)(c2ccccc2)C1=O)N1CCN(CCO)CC1`, the GI50 in assay [1], in [2], in assay [3], in assay [4], in assay [5] and in [6] was > 100 µM (inactive) in each case. In addition, the GI50 in assay [7], in assay [8], in [9], in assay [10], in [11] and in assay [12] was > 100 µM (inactive) each time. Besides, the GI50 in assay [13], in assay [14], in assay [15], in assay [16], in assay [17] and in [18] was > 100 µM (inactive) each time. The GI50 in assay [19] and in assay [20] was > 100 µM (inactive) each time.
`O=C(c1ccccc1)C(Nc1ccc2ccccc2c1)c1ccccc1` (stereo not given): the GI50 in [1] was 40.2 µM (inactive); in [2], > 65 µM (inactive); in [3], 36.6 µM (inactive); in assay [4], 21.3 µM (inactive); in assay [5] it was > 43.9 µM (inactive); in assay [6], 11.1 µM (inactive). Moreover, the GI50 in assay [7] is 33.3 µM (inactive); in [8] it was 42 µM (inactive); in assay [9], 11.3 µM (inactive); in assay [10] it was 54.2 µM (inactive); in [11], 4.85 µM (inactive); in assay [12], 20.7 µM (inactive). Further, the GI50 is 25.2 µM (inactive) in assay [13]; 18.2 µM (inactive) in [14]; 21.9 µM (inactive) in [15]; 32.1 µM (inactive) in assay [16]; 36.7 µM (inactive) in assay [17]; > 52.7 µM (inactive) in assay [18]. Besides, the GI50 in assay [19] was > 100 µM (inactive); in assay [20], 29.7 µM (inactive).
For the compound `COc1cc(C2c3cc4c(cc3OC(NNC(N)=O)C2C)OCO4)cc(OC)c1O` (stereo not given), the GI50 in assay [1] was 2.22 µM (inactive); in [2], 8.04 µM (inactive); in [3] it was 5.48 µM (inactive); in assay [4], 3.41 µM (inactive); in [5], 0.598 µM (active); in [6] it was 1.64 µM (inactive). Moreover, the GI50 is 3.45 µM (inactive) in assay [7]; 3.96 µM (inactive) in assay [8]; > 100 µM (inactive) in [9]; 0.933 µM (active) in assay [10]; 0.324 µM (active) in assay [11]; 2.54 µM (inactive) in assay [12]. Also, the GI50 in assay [13] is 21.3 µM (inactive); in assay [14] it was 0.512 µM (active); in assay [15], 2.1 µM (inactive); in [16], 24.5 µM (inactive); in assay [17], 2.99 µM (inactive); in assay [18], 6.59 µM (inactive). Also, the GI50 in [19] is 7.91 µM (inactive); in [20] it was 1.62 µM (inactive).
As for `CNc1ccc(-c2nc3cc(C)ccc3o2)cc1`, the GI50 in [1] was 64.6 µM (inactive); in assay [2] it was 72.3 µM (inactive); in [3], 19.9 µM (inactive); in assay [4] it was 27.4 µM (inactive); in assay [5], 22.4 µM (inactive); in assay [6] it was > 100 µM (inactive). The GI50 in [7] was > 100 µM (inactive); in [8], > 100 µM (inactive); in assay [9], 13.8 µM (inactive); in [10] it was 49.5 µM (inactive); in [11], > 100 µM (inactive); in assay [12], > 100 µM (inactive). The GI50 in assay [13] was 64.6 µM (inactive); in assay [14] it was 68.5 µM (inactive); in assay [15] it was 58.6 µM (inactive); in [16], 45.8 µM (inactive); in assay [17], 47.3 µM (inactive); in assay [18], > 100 µM (inactive). Moreover, the GI50 in [19] and in [20] was > 100 µM (inactive) throughout.
As for `O=C(NC1(C(=O)O)CCCC1)c1ccccc1`, the GI50 in assay [1], in assay [2], in assay [3], in assay [4], in [5] and in [6] was > 100 µM (inactive) in each case. Also, the GI50 in [7], in [8], in assay [9], in assay [10], in assay [11] and in assay [12] was > 100 µM (inactive) each time. Moreover, the GI50 in [13], in assay [14], in [15], in [16], in assay [17] and in assay [18] was > 100 µM (inactive) throughout. Also, the GI50 in assay [19] and in assay [20] was > 100 µM (inactive) each time.
For `O=C1N/C(=N\N=C\c2ccccc2)C(c2ccccc2)O1` (stereo not given), the GI50 in assay [1] was > 100 µM (inactive); in assay [2], 15.9 µM (inactive); in assay [3], 65.6 µM (inactive); in assay [4] it was 99.3 µM (inactive); in assay [5] it was 80 µM (inactive); in [6], 34.4 µM (inactive). Moreover, the GI50 in assay [7] was 45.3 µM (inactive); in [8] it was 53 µM (inactive); in [9], 79.8 µM (inactive); in assay [10], > 100 µM (inactive); in [11], > 100 µM (inactive); in assay [12], 17.1 µM (inactive). The GI50 in assay [13] was 33.3 µM (inactive); in assay [14] it was 75.7 µM (inactive); in [15], 58.9 µM (inactive); in assay [16], 33 µM (inactive); in assay [17], 47.9 µM (inactive); in assay [18] it was > 100 µM (inactive). The values for the GI50 in assay [19] and in assay [20] were 74.1 µM (inactive) and > 100 µM (inactive), respectively.

Source of the values: ChEMBL document CHEMBL1201862, “PubChem BioAssay data set” (2004).
